From article PMC6211260 (Journal of Enzyme Inhibition and Medicinal Chemistry, 2018)
pIC50: −log10 of the molar value. Where two headings read alike, the source gives them in different places.

What was measured:
Format in all cases: cell-based
[1] = tested on: SK-MEL-5 melanoma cell line; experiment: NCI five-dose testing; conditions: for IC (TGI): read-out: TGI (total growth inhibition concentration)
Experimental: (§1) Screening against the cancer cell lines was carried out at the National Cancer Institute (NCI, Bethesda, Maryland, USA) applying the standard protocol of the NCI[22].

[2] = tested on: HT-29 colon cancer cell line; experiment: NCI five-dose testing; conditions: for pIC50: read-out: IC50; for IC (TGI): read-out: TGI (total growth inhibition concentration)
Experimental: as §1

[3] = tested on: A498 renal cancer cell line; experiment: NCI five-dose testing; conditions: for IC (TGI): read-out: TGI (total growth inhibition concentration)
Experimental: as §1

[4] = tested on: PC-3 prostate cancer cell line; experiment: NCI five-dose testing; conditions: for pIC50: read-out: IC50; for IC (TGI): read-out: TGI (total growth inhibition concentration)
Experimental: as §1

[5] = tested on: HOP-92 non-small cell lung cancer cell line; experiment: NCI five-dose testing; conditions: for IC (TGI): read-out: TGI (total growth inhibition concentration)
Experimental: as §1

[6] = tested on: U251 CNS cancer cell line; experiment: NCI five-dose testing; conditions: for pIC50: read-out: IC50; for IC (TGI): read-out: TGI (total growth inhibition concentration)
Experimental: as §1

[7] = tested on: OVCAR-4 ovarian cancer cell line; experiment: NCI five-dose testing; conditions: for IC (TGI): read-out: TGI (total growth inhibition concentration)
Experimental: as §1

[8] = tested on: MDA-MB-468 breast cancer cell line; experiment: NCI five-dose testing; conditions: for IC (TGI): read-out: TGI (total growth inhibition concentration)
Experimental: as §1

[9] = tested on: K-562 leukaemia cell line; experiment: NCI five-dose testing; conditions: for IC (TGI): read-out: TGI (total growth inhibition concentration)
Experimental: as §1

CNS cancer cell lines = experiment: NCI five-dose testing, subpanel mean; conditions: subpanel IV: CNS cancer
Experimental: as §1

melanoma cell lines = experiment: NCI five-dose testing, subpanel mean; conditions: subpanel V: melanoma
Experimental: as §1

renal cancer cell lines = experiment: NCI five-dose testing, subpanel mean; conditions: subpanel VII: renal cancer
Experimental: as §1

breast cancer cell lines = experiment: NCI five-dose testing, subpanel mean; conditions: subpanel IX: breast cancer
Experimental: as §1

colon cancer cell lines = experiment: NCI five-dose testing, subpanel mean; conditions: subpanel III: colon cancer
Experimental: as §1

Leukaemia cell lines = experiment: NCI five-dose testing, subpanel mean; conditions: subpanel I: Leukaemia
Experimental: as §1

[10] = tested on: prostate cancer cell lines; experiment: NCI five-dose testing, subpanel mean; conditions: subpanel VIII: prostate cancer
Experimental: as §1

[11] = tested on: non-small cell lung cancer cell lines; experiment: NCI five-dose testing, subpanel mean; conditions: subpanel II: non-small cell lung cancer
Experimental: as §1

[12] = tested on: ovarian cancer cell lines; experiment: NCI five-dose testing, subpanel mean; conditions: subpanel VI: ovarian cancer
Experimental: as §1

## COc1cccc(-c2nn(-c3ccccc3)cc2-c2ccnc(NCCNS(=O)(=O)c3ccc(Cl)cc3)c2)c1 [Compound 1c, 4-Chloro-N-(2-((4-(3-(3-methoxyphenyl)-1-phenyl-1H-pyrazol-4-yl)pyridin-2-yl)amino)ethyl) benzenesulfonamide]
[1]; SK-MEL-5
  pIC50: 5.71
  LD50 (lethal dose 50): 7.7 µM
  IC (TGI): 3.8 µM
[2]; HT-29
  LD50 (lethal dose 50): >100 µM
  pIC50: 5.47
  IC (TGI): 11.3 µM
[3]; A498
  pIC50: 5.34
  LD50 (lethal dose 50): >100 µM
  IC (TGI): >100 µM
[4]; PC-3
  LD50 (lethal dose 50): >100 µM
  pIC50: 5.61
  IC (TGI): >100 µM
[5]; HOP-92
  pIC50: 5.61
  LD50 (lethal dose 50): >100 µM
  IC (TGI): 9.4 µM
[6]; U251
  LD50 (lethal dose 50): >100 µM
  pIC50: 5.23
  IC (TGI): >100 µM
[7]; OVCAR-4
  pIC50: 5.38
  LD50 (lethal dose 50): >100 µM
  IC (TGI): >100 µM
[8]; MDA-MB-468
  pIC50: 5.41
  LD50 (lethal dose 50): >100 µM
  IC (TGI): >100 µM
[9]; K-562
  pIC50: 5.43
  LD50 (lethal dose 50): >100 µM
  IC (TGI): >100 µM
CNS cancer cell lines
  pIC50: 5.20
Melanoma cell lines
  pIC50: 5.34
Renal cancer cell lines
  pIC50: 5.32
Breast cancer cell lines
  pIC50: 5.42
Colon cancer cell lines
  pIC50: 5.39
Leukaemia cell lines
  pIC50: 5.54
[10]
  pIC50: 5.30
[11]
  pIC50: 5.22
[12]
  pIC50: 5.28

## O=S(=O)(NCCCNc1cc(-c2cn(-c3ccccc3)nc2-c2cccc(O)c2)ccn1)c1cccc2ccccc12 [Compound 2q, N-(3-((4-(3-(3-Hydroxyphenyl)-1-phenyl-1H-pyrazol-4-yl)pyridin-2-yl)amino)propyl) naphthalene-1-sulfonamide]
[1]; Homo sapiens, SK-MEL-5
  pIC50: 5.82
  IC (TGI): 3.4 µM
[1]; Homo sapiens, SK-MEL-5, read-out: LD50 (lethal dose 50)
  LC50 (lethal concentration 50): 7.4 µM
[2]; Homo sapiens, HT-29, read-out: LD50 (lethal dose 50)
  CC50: 4.5 µM
[2]; Homo sapiens, HT-29
  pIC50: 5.91
  IC (TGI): 1.7 µM
[3]; Homo sapiens, A498
  pIC50: 5.96
  IC (TGI): 6.6 µM
[3]; Homo sapiens, A498, read-out: LD50 (lethal dose 50)
  LC50 (lethal concentration 50%): > 100 µM
[4]; Homo sapiens, PC-3, read-out: LD50 (lethal dose 50)
  LC50 (lethal concentration 50): > 100 µM
[4]; Homo sapiens, PC-3
  pIC50: 5.71
  IC (TGI): 44.9 µM
[5]; Homo sapiens, HOP-92
  pIC50: 5.81
[5]; Homo sapiens, HOP-92, HOP-92
  IC (TGI): 7.2 µM
[5]; Homo sapiens, HOP-92, read-out: LD50 (lethal dose 50)
  LD50 (lethal dose 50): > 100 µM
[6]; Homo sapiens, U-251, read-out: LD50 (lethal dose 50)
  CC50: 41.3 µM
[6]; Homo sapiens, U-251, U251
  pIC50: 5.89
  IC (TGI): 13.2 µM
[7]; Homo sapiens, OVCAR-4
  pIC50: 5.72
  IC (TGI): > 100 µM
[7]; Homo sapiens, OVCAR-4, read-out: LD50 (lethal dose 50)
  LC50 (lethal concentration 50): > 100 µM
[8]; Homo sapiens, MDA-MB-468
  pIC50: 5.74
  IC (TGI): 6 µM
[8]; Homo sapiens, MDA-MB-468, read-out: LD50 (lethal dose 50)
  CC50: > 100 µM
[9]; Homo sapiens, K562, read-out: LD50 (lethal dose 50)
  CC50: > 100 µM
[9]; Homo sapiens, K562, K-562
  pIC50: 6.04
  IC (TGI): 4.4 µM
CNS cancer cell lines
  pIC50: 5.63
Melanoma cell lines
  pIC50: 5.64
Renal cancer cell lines
  pIC50: 5.52
Breast cancer cell lines
  pIC50: 5.71
Colon cancer cell lines
  pIC50: 5.58
Leukaemia cell lines
  pIC50: 5.71
[10]
  pIC50: 5.46
[11]
  pIC50: 5.52
[12]
  pIC50: 5.28
